# Experimental data from US12479847B2 (DANA-FARBER CANCER INSTITUTE, INC., priority 2019, dated 2025).
# Experiments:
# Assay in all cases: KINOMEscan (ScanMAX) kinase profiling
# Type in all cases: binding
# panel of 468 kinases [1] = target: T1, panel of 468 kinases (Homo sapiens, UniProt P27037); conditions: ACVR2A; 1 μM; read-out: % control
# T1 construct: purchased KINOMEscan (ScanMAX) service
# Description: (§1) The kinase selectivity of inventive compounds 12, 75, and 77 was evaluated by KINOMEscan®. KINOMEscan® (ScanMAX™) analysis was performed against a near comprehensive panel of 468 kinases. The control percentage (% control) for inventive compounds at 1 μM in DMSO was determined by Equation 1: % control=(inventive compound−positive control)/(negative control−positive control)×100%, Equation 1
# (§2) wherein the positive control is a compound with a % control value of 0% relative light units (RLU), and the negative control (i.e., DMSO) has % control value of 100% RLU. The enzyme selectivity in the present invention is defined as follows: inventive compounds are considered active for an enzyme when the observed % control is less than 35% (<35%).
# panel of 468 kinases [2] = target: T2, panel of 468 kinases (Homo sapiens, UniProt O43353); conditions: RIPK2; 1 μM; read-out: % control
# T2 construct: purchased KINOMEscan (ScanMAX) service
# T2 sequence (O43353 whole entry): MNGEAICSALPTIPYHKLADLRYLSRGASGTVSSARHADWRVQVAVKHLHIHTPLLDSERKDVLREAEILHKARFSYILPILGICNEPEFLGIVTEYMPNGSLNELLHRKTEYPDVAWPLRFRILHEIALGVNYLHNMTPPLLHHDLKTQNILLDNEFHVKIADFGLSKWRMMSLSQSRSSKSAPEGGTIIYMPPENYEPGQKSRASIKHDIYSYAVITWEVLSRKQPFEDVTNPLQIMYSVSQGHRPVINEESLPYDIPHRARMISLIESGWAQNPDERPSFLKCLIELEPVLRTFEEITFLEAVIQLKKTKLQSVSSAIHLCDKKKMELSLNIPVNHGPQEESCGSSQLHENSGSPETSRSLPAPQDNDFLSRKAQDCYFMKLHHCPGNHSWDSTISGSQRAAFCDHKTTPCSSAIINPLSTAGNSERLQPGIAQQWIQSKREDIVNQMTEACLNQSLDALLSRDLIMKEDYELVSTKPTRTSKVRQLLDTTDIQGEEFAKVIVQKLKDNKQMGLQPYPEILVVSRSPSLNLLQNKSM
# Description: as §1, §2
# panel of 468 kinases [3] = target: T3, panel of 468 kinases (Homo sapiens, UniProt P48736); conditions: PIK3CG; 1 μM; read-out: % control
# T3 construct: purchased KINOMEscan (ScanMAX) service
# Description: as §1, §2
# panel of 468 kinases [4] = target: T4, panel of 468 kinases (Homo sapiens, UniProt O00750); conditions: PIK3C2B; 1 μM; read-out: % control
# T4 construct: purchased KINOMEscan (ScanMAX) service
# T4 sequence (O00750 whole entry): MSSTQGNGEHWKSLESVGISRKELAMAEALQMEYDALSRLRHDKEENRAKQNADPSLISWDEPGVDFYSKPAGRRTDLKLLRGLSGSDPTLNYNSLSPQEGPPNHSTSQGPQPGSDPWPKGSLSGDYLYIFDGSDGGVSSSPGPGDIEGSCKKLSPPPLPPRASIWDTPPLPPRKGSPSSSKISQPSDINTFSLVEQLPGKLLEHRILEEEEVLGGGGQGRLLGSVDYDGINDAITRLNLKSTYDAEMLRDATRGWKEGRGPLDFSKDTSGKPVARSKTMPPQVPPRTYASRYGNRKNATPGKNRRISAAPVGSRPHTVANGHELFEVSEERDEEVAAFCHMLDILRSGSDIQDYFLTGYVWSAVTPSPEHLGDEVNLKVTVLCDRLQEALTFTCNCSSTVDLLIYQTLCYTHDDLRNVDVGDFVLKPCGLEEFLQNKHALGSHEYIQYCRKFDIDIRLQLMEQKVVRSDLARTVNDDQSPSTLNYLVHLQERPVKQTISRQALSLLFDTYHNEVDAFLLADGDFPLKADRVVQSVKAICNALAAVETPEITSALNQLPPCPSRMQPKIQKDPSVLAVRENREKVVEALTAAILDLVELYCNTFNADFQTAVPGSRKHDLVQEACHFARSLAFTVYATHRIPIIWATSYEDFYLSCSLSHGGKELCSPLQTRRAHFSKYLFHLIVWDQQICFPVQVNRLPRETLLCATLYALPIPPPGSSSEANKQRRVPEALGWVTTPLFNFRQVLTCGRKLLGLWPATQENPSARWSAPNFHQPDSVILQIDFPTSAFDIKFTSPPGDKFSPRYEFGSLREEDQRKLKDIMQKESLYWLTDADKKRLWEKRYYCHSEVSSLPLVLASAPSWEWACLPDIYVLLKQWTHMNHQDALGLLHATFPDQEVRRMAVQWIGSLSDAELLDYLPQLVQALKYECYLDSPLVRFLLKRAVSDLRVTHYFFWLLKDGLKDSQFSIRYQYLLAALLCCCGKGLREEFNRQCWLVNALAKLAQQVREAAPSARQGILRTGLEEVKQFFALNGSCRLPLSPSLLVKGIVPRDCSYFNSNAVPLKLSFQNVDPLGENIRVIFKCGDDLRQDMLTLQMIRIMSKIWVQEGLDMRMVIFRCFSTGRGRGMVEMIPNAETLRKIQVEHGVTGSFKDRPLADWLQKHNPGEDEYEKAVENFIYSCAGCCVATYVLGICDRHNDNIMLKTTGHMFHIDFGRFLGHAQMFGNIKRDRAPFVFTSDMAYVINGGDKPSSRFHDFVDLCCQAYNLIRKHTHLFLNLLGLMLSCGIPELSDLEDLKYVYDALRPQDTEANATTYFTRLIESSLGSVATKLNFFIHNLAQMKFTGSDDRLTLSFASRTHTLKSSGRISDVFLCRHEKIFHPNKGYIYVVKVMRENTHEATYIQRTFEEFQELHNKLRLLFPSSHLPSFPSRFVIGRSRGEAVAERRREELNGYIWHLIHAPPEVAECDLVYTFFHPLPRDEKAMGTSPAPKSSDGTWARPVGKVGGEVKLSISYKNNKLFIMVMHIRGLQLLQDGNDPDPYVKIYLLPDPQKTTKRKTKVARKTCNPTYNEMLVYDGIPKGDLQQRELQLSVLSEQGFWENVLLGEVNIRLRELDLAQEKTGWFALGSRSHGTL
# Description: as §1, §2
# panel of 468 kinases [5] = target: T5, panel of 468 kinases (Homo sapiens, UniProt Q14289); conditions: PYK2; 1 μM; read-out: % control
# T5 construct: purchased KINOMEscan (ScanMAX) service
# Description: as §1, §2
# panel of 468 kinases [6] = target: T6, panel of 468 kinases (Homo sapiens, UniProt P10721, T670I/V559D); conditions: KIT(V559D,T670I); 1 μM; read-out: % control
# T6 construct: purchased KINOMEscan (ScanMAX) service
# T6 sequence (P10721 26-976 V559D/T670I): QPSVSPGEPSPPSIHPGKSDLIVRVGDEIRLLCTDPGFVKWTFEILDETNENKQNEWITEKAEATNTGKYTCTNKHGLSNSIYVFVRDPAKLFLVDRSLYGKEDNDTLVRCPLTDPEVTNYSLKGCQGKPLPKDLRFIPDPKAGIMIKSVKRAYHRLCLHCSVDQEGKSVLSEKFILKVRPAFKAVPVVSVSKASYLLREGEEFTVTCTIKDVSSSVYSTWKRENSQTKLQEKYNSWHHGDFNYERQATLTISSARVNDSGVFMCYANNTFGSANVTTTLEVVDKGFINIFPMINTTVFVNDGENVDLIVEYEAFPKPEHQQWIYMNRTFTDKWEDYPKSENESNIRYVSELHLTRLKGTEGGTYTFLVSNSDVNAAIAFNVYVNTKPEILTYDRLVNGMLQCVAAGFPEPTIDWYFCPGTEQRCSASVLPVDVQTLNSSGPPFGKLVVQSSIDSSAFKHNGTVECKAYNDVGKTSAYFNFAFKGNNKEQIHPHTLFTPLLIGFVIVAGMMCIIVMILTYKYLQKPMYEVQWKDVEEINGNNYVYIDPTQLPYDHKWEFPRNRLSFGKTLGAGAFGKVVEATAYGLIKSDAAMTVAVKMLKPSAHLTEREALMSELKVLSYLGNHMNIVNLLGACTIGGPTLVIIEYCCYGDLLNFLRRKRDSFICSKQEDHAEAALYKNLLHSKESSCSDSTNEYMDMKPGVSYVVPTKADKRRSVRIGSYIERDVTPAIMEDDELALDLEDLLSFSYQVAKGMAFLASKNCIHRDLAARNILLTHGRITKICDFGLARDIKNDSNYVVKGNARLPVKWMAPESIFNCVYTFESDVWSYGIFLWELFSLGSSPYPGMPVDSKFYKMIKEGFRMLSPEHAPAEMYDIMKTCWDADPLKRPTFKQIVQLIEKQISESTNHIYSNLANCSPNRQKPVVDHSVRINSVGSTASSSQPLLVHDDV
# Description: as §1, §2
# panel of 468 kinases [7] = target: T7, panel of 468 kinases (Homo sapiens, UniProt P42336, C420R); conditions: PIK3CA(C420R); 1 μM; read-out: % control
# T7 construct: purchased KINOMEscan (ScanMAX) service
# Description: as §1, §2
# panel of 468 kinases [8] = target: T8, panel of 468 kinases (Homo sapiens, UniProt Q15569); conditions: TESK1; 1 μM; read-out: % control
# T8 construct: purchased KINOMEscan (ScanMAX) service
# T8 sequence (Q15569 whole entry): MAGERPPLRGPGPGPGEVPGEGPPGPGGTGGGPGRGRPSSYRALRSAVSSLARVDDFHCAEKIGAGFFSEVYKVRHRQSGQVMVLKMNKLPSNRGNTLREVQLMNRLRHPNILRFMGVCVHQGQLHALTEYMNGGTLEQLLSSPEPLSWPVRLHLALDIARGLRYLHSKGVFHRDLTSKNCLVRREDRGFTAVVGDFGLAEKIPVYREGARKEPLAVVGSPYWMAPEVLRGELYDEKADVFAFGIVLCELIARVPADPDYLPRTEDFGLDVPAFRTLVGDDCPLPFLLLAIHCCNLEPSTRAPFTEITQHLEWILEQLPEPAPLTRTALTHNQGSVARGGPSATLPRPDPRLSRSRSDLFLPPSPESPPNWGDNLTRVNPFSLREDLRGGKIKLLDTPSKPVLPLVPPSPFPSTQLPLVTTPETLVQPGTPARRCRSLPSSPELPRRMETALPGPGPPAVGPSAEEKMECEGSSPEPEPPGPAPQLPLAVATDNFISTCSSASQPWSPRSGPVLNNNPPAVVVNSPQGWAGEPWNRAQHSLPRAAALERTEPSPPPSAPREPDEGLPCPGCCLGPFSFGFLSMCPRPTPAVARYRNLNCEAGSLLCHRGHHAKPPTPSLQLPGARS
# Description: as §1, §2
# panel of 468 kinases [9] = target: T9, panel of 468 kinases (Homo sapiens, UniProt Q6DT37); conditions: DMPK2; 1 μM; read-out: % control
# T9 construct: purchased KINOMEscan (ScanMAX) service
# Description: as §1, §2
# panel of 468 kinases [10] = target: T10, panel of 468 kinases (Homo sapiens, UniProt P00533, L858R); conditions: EGFR(L858R); 1 μM; read-out: % control
# T10 construct: purchased KINOMEscan (ScanMAX) service
# Description: as §1, §2
# panel of 468 kinases [11] = target: T11, panel of 468 kinases (Homo sapiens, UniProt P16234); conditions: PDGFRA; 1 μM; read-out: % control
# T11 construct: purchased KINOMEscan (ScanMAX) service
# Description: as §1, §2
# panel of 468 kinases [12] = target: T12, panel of 468 kinases (Homo sapiens, UniProt Q8IVH8); conditions: MAP4K3; 1 μM; read-out: % control
# T12 construct: purchased KINOMEscan (ScanMAX) service
# T12 sequence (Q8IVH8 1-894): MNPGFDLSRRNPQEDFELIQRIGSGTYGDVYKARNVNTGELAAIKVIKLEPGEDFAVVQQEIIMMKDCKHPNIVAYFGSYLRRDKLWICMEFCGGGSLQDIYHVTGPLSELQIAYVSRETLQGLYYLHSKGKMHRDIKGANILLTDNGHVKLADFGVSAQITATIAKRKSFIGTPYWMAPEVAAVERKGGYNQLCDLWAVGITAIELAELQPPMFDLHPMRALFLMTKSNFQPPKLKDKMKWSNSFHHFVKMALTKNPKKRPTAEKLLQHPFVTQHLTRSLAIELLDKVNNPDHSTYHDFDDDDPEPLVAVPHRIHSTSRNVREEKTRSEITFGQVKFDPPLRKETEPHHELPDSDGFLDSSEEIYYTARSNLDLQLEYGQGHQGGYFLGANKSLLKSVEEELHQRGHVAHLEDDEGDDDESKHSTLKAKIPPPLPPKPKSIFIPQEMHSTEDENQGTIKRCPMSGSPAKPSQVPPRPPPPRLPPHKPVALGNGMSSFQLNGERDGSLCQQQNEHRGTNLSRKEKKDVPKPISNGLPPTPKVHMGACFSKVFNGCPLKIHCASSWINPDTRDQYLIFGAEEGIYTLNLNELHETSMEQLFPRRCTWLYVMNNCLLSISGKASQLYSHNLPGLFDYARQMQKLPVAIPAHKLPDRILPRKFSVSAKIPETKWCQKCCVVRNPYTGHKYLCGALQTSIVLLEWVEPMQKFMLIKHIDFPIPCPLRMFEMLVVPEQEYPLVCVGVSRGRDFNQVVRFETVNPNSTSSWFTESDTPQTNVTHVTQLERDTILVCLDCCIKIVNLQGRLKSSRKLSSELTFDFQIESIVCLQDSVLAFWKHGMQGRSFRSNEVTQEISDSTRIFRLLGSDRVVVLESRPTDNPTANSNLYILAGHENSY
# Description: as §1, §2
# panel of 468 kinases [13] = target: T13, panel of 468 kinases (Homo sapiens, UniProt Q7KZI7); conditions: MARK2; 1 μM; read-out: % control
# T13 construct: purchased KINOMEscan (ScanMAX) service
# T13 sequence (Q7KZI7 whole entry): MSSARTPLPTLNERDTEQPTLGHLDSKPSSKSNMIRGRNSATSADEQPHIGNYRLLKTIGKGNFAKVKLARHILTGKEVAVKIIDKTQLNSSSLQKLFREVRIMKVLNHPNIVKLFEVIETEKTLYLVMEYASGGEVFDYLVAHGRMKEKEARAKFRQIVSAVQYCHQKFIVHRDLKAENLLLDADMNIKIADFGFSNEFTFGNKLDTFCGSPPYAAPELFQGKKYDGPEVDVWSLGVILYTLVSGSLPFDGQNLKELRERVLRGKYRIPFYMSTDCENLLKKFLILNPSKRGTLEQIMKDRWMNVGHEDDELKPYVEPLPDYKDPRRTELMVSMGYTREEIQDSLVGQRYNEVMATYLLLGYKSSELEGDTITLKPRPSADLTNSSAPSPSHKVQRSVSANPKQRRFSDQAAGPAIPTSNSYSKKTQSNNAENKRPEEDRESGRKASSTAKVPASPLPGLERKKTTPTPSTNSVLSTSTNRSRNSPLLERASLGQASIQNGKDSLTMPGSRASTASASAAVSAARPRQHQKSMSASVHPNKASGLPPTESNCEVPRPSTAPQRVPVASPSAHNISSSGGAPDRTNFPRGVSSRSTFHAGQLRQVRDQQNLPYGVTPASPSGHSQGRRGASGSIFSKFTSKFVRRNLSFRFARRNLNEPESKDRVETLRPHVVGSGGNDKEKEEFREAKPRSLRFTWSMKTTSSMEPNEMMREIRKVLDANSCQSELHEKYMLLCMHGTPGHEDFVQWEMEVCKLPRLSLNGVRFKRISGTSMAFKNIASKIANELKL
# Description: as §1, §2
# panel of 468 kinases [14] = target: T14, panel of 468 kinases (Homo sapiens, UniProt Q13153); conditions: PAK1; 1 μM; read-out: % control
# T14 construct: purchased KINOMEscan (ScanMAX) service
# T14 sequence (Q13153 whole entry): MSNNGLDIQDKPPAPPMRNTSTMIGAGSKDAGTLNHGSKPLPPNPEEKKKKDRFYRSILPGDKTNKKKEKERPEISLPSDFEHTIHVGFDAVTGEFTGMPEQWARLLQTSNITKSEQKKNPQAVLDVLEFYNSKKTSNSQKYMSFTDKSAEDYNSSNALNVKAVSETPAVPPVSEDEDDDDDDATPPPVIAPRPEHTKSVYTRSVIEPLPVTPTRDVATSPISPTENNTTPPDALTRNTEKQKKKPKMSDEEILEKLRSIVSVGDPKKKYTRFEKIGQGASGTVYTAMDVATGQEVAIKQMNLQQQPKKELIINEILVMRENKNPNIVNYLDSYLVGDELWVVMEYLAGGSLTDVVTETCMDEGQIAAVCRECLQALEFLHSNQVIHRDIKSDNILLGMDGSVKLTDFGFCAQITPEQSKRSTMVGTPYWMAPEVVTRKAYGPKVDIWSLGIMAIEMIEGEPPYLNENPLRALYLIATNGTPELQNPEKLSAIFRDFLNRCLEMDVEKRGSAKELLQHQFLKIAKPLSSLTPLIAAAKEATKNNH
# Description: as §1, §2
# panel of 468 kinases [15] = target: T15, panel of 468 kinases (Homo sapiens, UniProt Q05655); conditions: PRKCD; 1 μM; read-out: % control
# T15 construct: purchased KINOMEscan (ScanMAX) service
# Description: as §1, §2
# panel of 468 kinases [16] = target: T16, panel of 468 kinases (Homo sapiens, UniProt P42684); conditions: ABL2; 1 μM; read-out: % control
# T16 construct: purchased KINOMEscan (ScanMAX) service
# Description: as §1, §2
# panel of 468 kinases [17] = target: T17, panel of 468 kinases (Homo sapiens, UniProt Q9P2K8, S808G); conditions: GCN2(Kin.Dom.2,S808G); 1 μM; read-out: % control
# T17 construct: purchased KINOMEscan (ScanMAX) service
# Description: as §1, §2
# panel of 468 kinases [18] = target: T18, panel of 468 kinases (Homo sapiens, UniProt Q9HBH9); conditions: MKNK2; 1 μM; read-out: % control
# T18 construct: purchased KINOMEscan (ScanMAX) service
# Description: as §1, §2
# panel of 468 kinases [19] = target: T19, panel of 468 kinases (Homo sapiens, UniProt P32298); conditions: GRK4; 1 μM; read-out: % control
# T19 construct: purchased KINOMEscan (ScanMAX) service
# Description: as §1, §2
compound,measurement,setting,value
"CNc1nc(Nc2ccc(S(=O)(=O)N3CCC(N4CCOCC4)CC3)cc2OC)nc2[nH]cc(Cl)c12 [Compound 12, 5-chloro-N2-(2-methoxy-4-((4-morpholinopiperidin-1-yl)sulfonyl)phenyl)-N4-methyl-7H-pyrrolo[2,3-d]pyrimidine-2,4-diamine]",remaining binding at 1 µM,panel of 468 kinases [1],100%
same,remaining binding at 1 µM,panel of 468 kinases [2],100%
same,remaining binding at 1 µM,panel of 468 kinases [3],95%
same,remaining binding at 1 µM,panel of 468 kinases [4],100%
same,remaining binding at 1 µM,panel of 468 kinases [5],35%
same,remaining binding at 1 µM,panel of 468 kinases [6],89%
same,remaining binding at 1 µM,panel of 468 kinases [7],100%
same,remaining binding at 1 µM,panel of 468 kinases [8],100%
same,remaining binding at 1 µM,panel of 468 kinases [9],100%
same,remaining binding at 1 µM,panel of 468 kinases [10],100%
same,remaining binding at 1 µM,panel of 468 kinases [11],77%
same,remaining binding at 1 µM,panel of 468 kinases [12],98%
same,remaining binding at 1 µM,panel of 468 kinases [13],100%
same,remaining binding at 1 µM,panel of 468 kinases [14],100%
same,remaining binding at 1 µM,panel of 468 kinases [15],94%
same,remaining binding at 1 µM,panel of 468 kinases [16],78%
same,remaining binding at 1 µM,panel of 468 kinases [17],88%
same,remaining binding at 1 µM,panel of 468 kinases [18],57%
same,remaining binding at 1 µM,panel of 468 kinases [19],100%
"CNc1nc(Nc2ccc(C(=O)N3CCC(N4CCOCC4)CC3)c3c2OCO3)nc2[nH]cc(Cl)c12 [Compound 75, (7-((5-chloro-4-(methylamino)-7H-pyrrolo[2,3-d]pyrimidin-2-yl)amino)benzo[d][1,3]dioxol-4-yl)(4-morpholinopiperidin-1-yl)methanone]",remaining binding at 1 µM,panel of 468 kinases [1],100%
same,remaining binding at 1 µM,panel of 468 kinases [2],100%
same,remaining binding at 1 µM,panel of 468 kinases [3],100%
same,remaining binding at 1 µM,panel of 468 kinases [4],100%
same,remaining binding at 1 µM,panel of 468 kinases [5],40%
same,remaining binding at 1 µM,panel of 468 kinases [6],62%
same,remaining binding at 1 µM,panel of 468 kinases [7],100%
same,remaining binding at 1 µM,panel of 468 kinases [8],100%
same,remaining binding at 1 µM,panel of 468 kinases [9],100%
same,remaining binding at 1 µM,panel of 468 kinases [10],100%
same,remaining binding at 1 µM,panel of 468 kinases [11],67%
same,remaining binding at 1 µM,panel of 468 kinases [12],81%
same,remaining binding at 1 µM,panel of 468 kinases [13],100%
same,remaining binding at 1 µM,panel of 468 kinases [14],100%
same,remaining binding at 1 µM,panel of 468 kinases [15],89%
same,remaining binding at 1 µM,panel of 468 kinases [16],100%
same,remaining binding at 1 µM,panel of 468 kinases [17],31%
same,remaining binding at 1 µM,panel of 468 kinases [18],10%
same,remaining binding at 1 µM,panel of 468 kinases [19],41%
"CNc1nc(Nc2ccc(P3(=O)CCN(C4CCOCC4)CC3)cc2OC)nc2[nH]cc(Cl)c12 [Compound 77, 4-(4-((5-chloro-4-(methylamino)-7H-pyrrolo[2,3-d]pyrimidin-2-yl)amino)-3-methoxyphenyl)-1-(tetrahydro-2H-pyran-4-yl)-1,4-azaphosphinane 4-oxide]",remaining binding at 1 µM,panel of 468 kinases [1],100%
same,remaining binding at 1 µM,panel of 468 kinases [2],100%
same,remaining binding at 1 µM,panel of 468 kinases [3],100%
same,remaining binding at 1 µM,panel of 468 kinases [4],96%
same,remaining binding at 1 µM,panel of 468 kinases [5],27%
same,remaining binding at 1 µM,panel of 468 kinases [6],100%
same,remaining binding at 1 µM,panel of 468 kinases [7],100%
same,remaining binding at 1 µM,panel of 468 kinases [8],100%
same,remaining binding at 1 µM,panel of 468 kinases [9],94%
same,remaining binding at 1 µM,panel of 468 kinases [10],76%
same,remaining binding at 1 µM,panel of 468 kinases [11],69%
same,remaining binding at 1 µM,panel of 468 kinases [12],100%
same,remaining binding at 1 µM,panel of 468 kinases [13],100%
same,remaining binding at 1 µM,panel of 468 kinases [14],100%
same,remaining binding at 1 µM,panel of 468 kinases [15],95%
same,remaining binding at 1 µM,panel of 468 kinases [16],100%
same,remaining binding at 1 µM,panel of 468 kinases [17],78%
same,remaining binding at 1 µM,panel of 468 kinases [18],31%
same,remaining binding at 1 µM,panel of 468 kinases [19],95%
